The ΔTm is the change in melting temperature against a reference sample.

The values that follow come from article PMC4301037, “Identification and Structure–Function Analysis of Subfamily Selective G Protein-Coupled Receptor Kinase Inhibitors” (ACS Chemical Biology, 2014).

T1 sequence (P43249 whole entry, the tested form may be a part): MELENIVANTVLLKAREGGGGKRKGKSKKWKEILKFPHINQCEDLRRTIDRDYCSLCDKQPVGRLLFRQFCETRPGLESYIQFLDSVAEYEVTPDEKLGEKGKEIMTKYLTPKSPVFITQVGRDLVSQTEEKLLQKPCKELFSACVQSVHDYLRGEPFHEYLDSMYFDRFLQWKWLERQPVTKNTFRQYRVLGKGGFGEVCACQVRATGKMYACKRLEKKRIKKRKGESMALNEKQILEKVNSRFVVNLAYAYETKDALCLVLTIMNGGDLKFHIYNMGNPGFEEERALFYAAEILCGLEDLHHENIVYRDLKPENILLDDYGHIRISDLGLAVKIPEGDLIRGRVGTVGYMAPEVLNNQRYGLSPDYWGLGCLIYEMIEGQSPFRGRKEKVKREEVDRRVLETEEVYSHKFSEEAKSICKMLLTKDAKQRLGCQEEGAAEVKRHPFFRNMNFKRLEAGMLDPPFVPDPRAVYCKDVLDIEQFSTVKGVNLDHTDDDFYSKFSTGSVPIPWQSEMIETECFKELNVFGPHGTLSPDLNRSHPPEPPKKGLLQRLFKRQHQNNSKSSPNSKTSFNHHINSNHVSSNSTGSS

One assay addresses T1, bovine GRK5 (Bos taurus, UniProt P43249).
T1 construct: when using full-length kinases as the receptor[37] instead of isolated kinase domains; made in house
The assay can be described thus: Primary DSF inhibitor screen, GRK5. The class given is binding. The note with it: 10 μM compound, 2 μM kinase, relative to DMSO control.
Turning to `O=C1Nc2ccccc2C1=Cc1c(Cl)[nH]c2ccccc12` [3-(2-Chloro-3-indolylmethylene)-1,3-dihydroindol-2-one], the “ΔTm, primary screen, GRK5” value turned out to be 2.98 °C.
Same read-out and setting: the result for `Brc1c(Br)c(Br)c2[nH]nnc2c1Br` [4,5,6,7-Tetrabromobenzo-triazole] reads 8.22 °C; that for `Nc1cc2ncnc(Nc3cccc(Br)c3)c2cc1N` [4-[(3-Bromophenyl)amino]-6,7-diaminoquinazoline], 6.16 °C; that for `Nc1ncnc2c1c(I)cn2[C@@H]1O[C@H](CO)[C@@H](O)[C@H]1O` [5-Iodotubercidin, 4-Amino-5-iodo-7-(b-D-ribofuranosyl)pyrrolo[2,3-d]pyrimidine], 2.22 °C.
Still for that read-out and setting: the result for `NC1=NC(=O)C(=C2CCNC(=O)c3[nH]c(Br)cc32)N1` [10Z-Hymenialdisine, 4-(2-Amino-4-oxo-2-imidazolidin-5-ylidene)-2-bromo-4,5,6,7-tetrahydropyrrolo[2,3-c]azepin-8-one] reads 4.5 °C; that for `O=C1Nc2ccccc2/C1=C\c1cnc[nH]1` [(Z,E)-3-(Imidazol-4-ylmethylene)indolin-2-one], 4.8 °C; that for `Nc1nc(Nc2ccc(S(N)(=O)=O)cc2)nn1C(=O)c1c(F)cccc1F` [Aurora/Cdk Inhibitor], 5.41 °C.
Consider `O=C1NC(=O)/C(=C/c2ccc(-c3nc4ccccc4s3)o2)S1` [BAS 09687195], for which the “ΔTm, primary screen, GRK5” value is 2.87 °C.
On the same count and under the same terms, then `O=C1NC(=O)C(c2c[nH]c3ccccc23)=C1c1c[nH]c2ccccc12` [BIM 4, bisindolylmaleimide IV], with 3.11 °C; and `Cl.Cn1cc(C2=C(c3c4n(c5ccccc35)CCC(CN)C4)C(=O)NC2=O)c2ccccc21` (stereo not drawn) [BIM 10, Bisindolylmaleimide X, HCl], with 6.19 °C; and `CN(C)CCCn1cc(C2=C(c3c[nH]c4ccccc34)C(=O)NC2=O)c2ccccc21.Cl` [BIM I, 2-[1-(3-Dimethylaminopropyl)-1H-indol-3-yl]-3-(1H-indol-3-yl)maleimide, HCl], with 6.45 °C.
Turning to `CC(C)n1cnc2c(Nc3cccc(Cl)c3)nc(NCCO)nc21` [Compound 52, 2-(2-Hydroxyethylamino)-6-(3-chloroanilino)-9-isopropylpurine], the “ΔTm, primary screen, GRK5” value came out at 5.53 °C.
Consider `Cc1cncc2cccc(S(=O)(=O)N3CCCNC[C@@H]3C)c12` [H-1152, (S)-(+)-2-Methyl-1-[(4-methyl-5-isoquinolinyl)sulfonyl]homopiperazine], for which the “ΔTm, primary screen, GRK5” value stood at 5.95 °C.
Same read-out and setting: then `NC(=O)Nc1sc(-c2ccccc2)cc1C(N)=O` [IKK-2 Inhibitor VI], with 2.57 °C.
For the compound `CC(C)(C)c1nc2c3ccc(F)cc3c3c(=O)[nH]ccc3c2[nH]1` [JAK Inhibitor I, 2-(1,1-Dimethylethyl)-9-fluoro-3,6-dihydro-7H-benz[h]-imidaz[4,5-f]isoquinolin-7-one], the “ΔTm, primary screen, GRK5” value came to 8.13 °C.

The same assay, now with this note: 10 μM compound, 2 μM kinase, relative to DMSO control; read-out: ΔTm, primary screen, GRK5.
`O=c1cc(-c2ccc(O)cc2)oc2cc(O)cc(O)c12` [Apigenin, 4',5,7-Trihydroxyflavone]: the shift in melting temperature (ΔTm) at 10 µM turned out to be 2.9 °C.
As to `CN1CC[C@H](c2c(O)cc(O)c3c(=O)cc(-c4ccccc4Cl)oc23)[C@H](O)C1` [Flavopiridol], the thermal shift (ΔTm) at 10 µM is 4.13 °C.
Regarding `O=C1Nc2ccccc2/C1=C1\CCc2cc(O)ccc21` [GR105659X], the thermal shift (ΔTm) at 10 µM was found to be 3.25 °C.
The same measure, in the same setting: then `CCNC(=O)O[C@H]1CN[C@H](C#Cc2cc3ncnc(Nc4ccc(OCc5cccc(F)c5)c(Cl)c4)c3s2)C1` [GSK192082A], with 2.97 °C.
The same measure, in the same setting: then `CN(C)C(=O)O[C@@H]1CN[C@@H](C#Cc2cc3ncnc(Nc4ccc(OCc5cccc(F)c5)c(Cl)c4)c3s2)C1` [GSK238063A], with 2.93 °C.
As for `C[C@@H](Oc1cc(-n2cnc3ccc(OCC4CCN(C)CC4)cc32)sc1C(N)=O)c1ccccc1C(F)(F)F` [GSK326090A], the ΔTm at 10 µM was determined as 2.06 °C.
As to `CC1=C(C(=O)Nc2ccc3[nH]nc(C)c3c2)C(c2ccc(C(F)(F)F)cc2)CC(=O)N1` (stereo not drawn) [GSK466314A], the ΔTm at 10 µM came to 3.54 °C.
Same read-out and setting: then `Fc1cccc(COc2ccc(Nc3ncnc4sc(-c5ccco5)cc34)cc2Cl)c1` [GSK969786A], with 2.11 °C; and `CCCN1CCC=C(c2ccc(Nc3nc(Nc4ccccc4C(N)=O)c4cc[nH]c4n3)c(C)c2)C1` [GSK994854A], with 4.92 °C.
The same measure, in the same setting: then `CCCN1CCCC(c2ccc(Nc3nc(Nc4cc(F)ccc4C(N)=O)c4cc[nH]c4n3)c(OC)c2)C1` (stereo not drawn) [GSK1173862A], with 4.75 °C.
On to `COc1cc(N2CCN(C(C)C)CC2)ccc1Nc1nc(Nc2ccc(F)cc2C(N)=O)c2cc[nH]c2n1` [GSK1220512A], for which the shift in melting temperature (ΔTm) at 10 µM turned out to be 3.05 °C.
On to `COc1cc(C)c(N(C)C(=O)CN(C)C)cc1Nc1nc(Nc2cccc(F)c2C(N)=O)c2cc[nH]c2n1` [GSK2219385A], for which the shift in melting temperature (ΔTm) at 10 µM was 3.58 °C.
On to `c1ccc(COc2ccc(Nc3ncnc4ccc(-c5ccco5)cc34)cc2)cc1` [GW284372X], for which the ΔTm at 10 µM turned out to be 3.6 °C.
On the same count and under the same terms, the result for `O=C1Nc2ccccc2/C1=C/Nc1ccc2[nH]c(=O)[nH]c2c1` [GW284408X] reads 2.4 °C; that for `NS(=O)(=O)c1ccc(NN=C2C(=O)Nc3ccc(C(=O)NCCCn4ccnc4)cc32)cc1` [GW290597X], 3.72 °C; that for `NS(=O)(=O)c1ccc(NN=C2C(=O)Nc3ccc(C(=O)NCc4ccncc4)cc32)cc1` [GW300657X], 3.89 °C.
As to `NS(=O)(=O)c1ccc(N/N=C2\C(=O)Nc3ccc(C(=O)NCCc4c[nH]cn4)cc32)cc1` [GW300660X], the thermal shift (ΔTm) at 10 µM came out at 3.03 °C.
Regarding `CC(C)=Cc1cccc2c1C(=NNc1ccc(S(N)(=O)=O)cc1)C(=O)N2` [GW396574X], the thermal shift (ΔTm) at 10 µM came to 2.08 °C.
For the compound `Cc1cc(O)cc(C)c1/C=C/c1cncc(C(=O)OC(C)(C)C)c1` [GW439255X], the thermal shift (ΔTm) at 10 µM is 2.66 °C.
Same read-out and setting: then `Cn1cc(C=C2C(=O)Nc3cccnc32)c2ccccc21` [GW441756X], with 2.82 °C.
On the same count and under the same terms, the result for `CS(=O)(=O)CCNCc1coc(-c2ccc3ncnc(Nc4ccc(OCc5ccccc5)cc4)c3c2)c1` [GW566221A] reads 2.58 °C; that for `CS(=O)(=O)CCNCc1ccc(-c2ccc3ncnc(Nc4ccc(OCc5ccccc5)c(Cl)c4)c3c2)o1` [GW574783B], 4.25 °C.
The same measure, in the same setting: the result for `CS(=O)(=O)CCNCc1ccc(-c2ccc3ncnc(Nc4ccc(OCc5ccccc5)c(Br)c4)c3c2)o1` [GW580496A] reads 4.33 °C; that for `NS(=O)(=O)c1ccc(NC=C2C(=O)Nc3ccc4ncsc4c32)cc1` [GW589933X], 4.8 °C.
Take `COC(=O)Nc1nc2ccc(Sc3ccc(NC(=O)Nc4cc(C(F)(F)F)ccc4F)cc3)cc2[nH]1` [GW607049C]: the shift in melting temperature (ΔTm) at 10 µM stood at 3.59 °C.
As to `CS(=O)(=O)CCN(CC#N)Cc1ccc(-c2ccc3ncnc(Nc4ccc(OCc5cccc(F)c5)c(Cl)c4)c3c2)o1` [GW616030X], the shift in melting temperature (ΔTm) at 10 µM came to 3.29 °C.
Still for that read-out and setting: the result for `CCS(=O)(=O)c1ccc(OC)c(Nc2ncc(-c3ccccc3Cl)o2)c1` [GW622055X] reads 2.14 °C; that for `O=S(=O)(CCNCc1ccc(-c2ccc3ncnc(Nc4ccc(OCc5cccc(F)c5)c(Cl)c4)c3c2)o1)c1ccccc1` [GW633459A], 3.27 °C; that for `COC(=O)Nc1nc2ccc(Oc3cccc(NC(=O)Nc4cc(C(F)(F)F)ccc4F)c3)cc2[nH]1` [GW659386A], 2.51 °C.
As for `COC(=O)Nc1nc2ccc(S(=O)(=O)c3ccc(NC(=O)Nc4cc(C(F)(F)F)ccc4F)cc3)cc2[nH]1` [GW680908A], the ΔTm at 10 µM is 4.07 °C.
Consider `O=C(Nc1ccc(Oc2ccc3nc(NC(=O)c4ccco4)[nH]c3c2)cc1)Nc1cc(C(F)(F)F)ccc1F` [GW683134A], for which the ΔTm at 10 µM is 2.32 °C.
Still for that read-out and setting: then `CCc1nn2ncccc2c1-c1ccnc(NC2CC2)n1` [GW683768X], with 2.22 °C.
As to `COC(=O)Nc1nc2ccc(Oc3ccc(NC(=O)Nc4cccc(Br)c4)cc3)cc2[nH]1` [GW694234A], the ΔTm at 10 µM is 4.08 °C.
With `CN1CCN(CCCNc2nc3ccc(Oc4ccc(NC(=O)Nc5cc(C(F)(F)F)ccc5F)cc4)cc3[nH]2)CC1` [GW700494A], the ΔTm at 10 µM is 3.97 °C.
Take `COC(=O)Nc1nc2ccc(Oc3ccc(NC(=O)Nc4cccc(C(=O)O)c4)cc3)cc2[nH]1` [GW701427A]: the ΔTm at 10 µM was 3.25 °C.
Take `CC(=O)Nc1cccc(C#Cc2cncnc2Nc2ccc(OCc3cccc(F)c3)c(Cl)c2)c1` [GW703087X]: the shift in melting temperature (ΔTm) at 10 µM is 3.36 °C.
As to `O=C(Nc1ccc(Oc2ccc3nc(NC(=O)c4ccccc4)[nH]c3c2)cc1)Nc1cc(C(F)(F)F)ccc1F` [GW709042A], the ΔTm at 10 µM was found to be 3.88 °C.
`NC(=O)c1cccc(Nc2nccc(Nc3cccc(F)c3)n2)c1` [GW759710A]: the ΔTm at 10 µM is 2.68 °C.
For the compound `Nc1ncnc2occ(-c3ccc(NC(=O)Nc4cc(C(F)(F)F)ccc4F)cc3)c12` [GW770249X], the thermal shift (ΔTm) at 10 µM is 3.19 °C.
As to `Nc1nc(-c2ccc(F)cc2)c(-c2ccc3ncccc3n2)s1` [GW785804X], the thermal shift (ΔTm) at 10 µM amounted to 3.16 °C.
Same read-out and setting: then `Nc1ncnc2occ(-c3ccc(NC(=O)Nc4cccc(C(F)(F)F)c4)cc3)c12` [GW795493X], with 4.96 °C; and `Cc1ccc(NC(=O)CC2CC2)cc1-c1ccc(C(=O)NCC2CC2)cc1` [GW796920X], with 3.82 °C.
Same read-out and setting: the result for `Nc1nccc(C#Cc2cncnc2Nc2ccc(OCc3cccc(F)c3)c(Cl)c2)n1` [GW799251X] reads 4.33 °C; that for `NS(=O)(=O)c1ccc(Nc2cc(-c3cccc(O)c3)n[nH]2)cc1` [GW831090X], 2.96 °C.
On the same count and under the same terms, the result for `NC(=O)c1sc(-n2cnc3ccc(C(F)(F)F)cc32)cc1OCc1ccccc1Br` [GW853606X] reads 4.43 °C; that for `O=c1c(-c2ccc(O)cc2)coc2cc(O)cc(O)c12` [Genistein, 4',5,7-Trihydroxyisoflavone], 2.46 °C.

The assay is the same for the next values; noted with them: read-out: ΔTm, primary screen, GRK5, 10 μM compound, 2 μM kinase, relative to DMSO control.
As to `c1cc(-c2cnn3nc(N4CCOCC4)ccc23)nc(NC2CC2)n1` [GW708336X], the thermal shift (ΔTm) at 10 µM is 2.8 °C.
Still for that read-out and setting: then `Clc1ccc(CNc2nccc(-c3cnn4ncccc34)n2)cc1` [GW781673X], with 2.27 °C.
